Publication PMC10986609, “Identification of fungal natural products with potent inhibition in Toxoplasma gondii” (Microbiology Spectrum, 2024)

Tests used:
T. gondii = test system: T. gondii; set-up: method as in earlier work; settings: 100 µM; cited from earlier work
[1] = test system: Toxoplasma gondii tachyzoites (RH88); assay: microbe, parasite or virus in culture; settings: Toxoplasma gondii, 48 h, read-out: TgRH88 IC50 (mean ± SEM)
Experimental: (§1) For the initial fixed concentration screening and IC50 determination in T. gondii, we utilized a luciferase expressing RH88 strain to quantify the number of live, actively replicating parasites. To construct this strain, the Fluc and DHFR selection markers had been integrated into the UPRT locus through CRISPR/Cas9, rendering the strain pyrimethamine-resistant ([6]). Screening was performed using a pure compound library provided by the University of Oklahoma Natural Products Discovery Group, containing 683 compounds derived primarily from fungal secondary metabolites. For purposes of testing, HFFs were grown in 96-well microtiter plates in preparation. The media we used to grow cells was referred to a D10 media that was composed of Dulbecco's Modified Eagle Medium (Thermo Fisher; Cat # 11995073), 10% Fetal Bovine Serum (Sigma-Aldrich; Cat # 12306C), 1 × non-essential amino acids (100 ×; Thermo Fisher; Cat # 11140050), HEPES buffer (1M; Fisher Scientific; Cat # SH3023701) at 0.4M, and 10 mg/mL of gentamicin (Fisher Scientific; Cat # 15710072). Compounds were then diluted to 10 µM in 100 µL of fresh D10 media. Each plate utilized artemisinin and DMSO vehicle controls. To each well, 2,500 parasites per 100 µL of D10 media were added. Three technical replicates were then performed. After 48 hours, 160 µL of the D10 media was removed, and plates were subjected to freezing then thawing. Following this, 10 µL of the passive lysis buffer (Promega; Cat# E1910) was added and incubated at room temperature for 15 min. Finally, 100 µL of luciferase assay reagent (Promega; Cat# E1501) was added to each well, and luminescence was measured using a PHERAstar FSX plate reader (BMG Labtech, Germany).
(§2) For IC50 and cytotoxicity determination, we used 384 plates with confluent HFF cells. Compounds were serially diluted 3-fold with a starting concentration of 20 µM. Samples were further diluted by adding an equal volume of media containing 700 parasites. DMSO and […] of KAE609 were used as negative and positive controls, respectively. Assays were performed with a total of three technical replicates and two biological replicates. After incubation for 48 hours, 50 µL of media was removed, and plates were subjected to freezing and thawing. Following this, 10 µL of passive lysis buffer was added and plates were incubated for 15 min at room temperature. Finally, 30 µL of luciferase reagent was added, and the luminescence was measured immediately using a PHERAstar FSX. In parallel, cytotoxicity dose response was performed in the same fashion without the addition of parasites. Cell counting kit-8 reagent (GlpBio; Cat # GK10001) was added at a 1:10 dilution and incubated at 37°C, 5% CO2 for 1 hour. The absorbance was then measured at 450 nm using a PHERAstar FSX. The data management system CDD vault was used for curve fitting and IC50 determination.

[2] = test system: human foreskin fibroblasts (HFFs); assay: HFF cytotoxicity dose response (cell counting kit-8); settings: Homo sapiens, Fibroblast, 48 h, read-out: HFF IC50 (mean ± SEM)
Experimental: as §2, with “Samples” for “For IC50 and cytotoxicity determination, we used 384 plates with confluent HFF cells. Compounds were serially diluted 3-fold with a starting concentration of 20 µM. Samples”

[3] = test system: Toxoplasma gondii tachyzoites (RH88); assay: T. gondii fixed concentration screen at 5 µM (luciferase); type: cell-based; settings: 48 hours
Experimental: as §1, with “To each well, 2,500 parasites per 100 µL of D10 media were added. Three technical replicates were then performed. After 48 hours, 160 µL of the D10 media was removed, and plates were subjected to freezing then thawing. Following this, 10 µL of the passive lysis buffer (Promega; Cat# E1910) was added and incubated at room temperature for 15 min.” left out

in vitro = settings: human
Experimental: as §2, with “Samples” for “For IC50 and cytotoxicity determination, we used 384 plates with confluent HFF cells. Compounds were serially diluted 3-fold with a starting concentration of 20 µM. Samples”

[4] = test system: Plasmodium falciparum (Dd2); settings: mean of duplicate or triplicate experiments; read-out: PfDd2 IC50; cited from earlier work

CC(C)[C@H]1CC[C@@]2(O)COC(=O)[C@H]2[C@@H]1/C=C(\CO)C(=O)O [hydroheptelidic acid, reference compound]
inhibition of T. gondii (T. gondii): no activity

C[C@@H]1CC[C@H]2[C@@H](C)C(=O)O[C@@H]3O[C@@]4(C)CC[C@@H]1[C@]32OO4 [Artemisinin, reference compound]
IC50 [1]: 0.702 ± 0.0247 µM
IC50 [2]: 10.5 µM
inhibition at 5 µM [3]: 94%

COC(=O)[C@@]12Oc3cc4c(c(O)c3C(=O)C1=C(O)CC[C@@H]2O)[C@@H]1C=C[C@@]2(C4)C(=O)c3cc(C)cc(O)c3C(O)=C2C1=O [compound 130144, Xanthoquinodin A1]
IC50 [1]: 0.112 ± 0.074 µM
IC50 (in vitro): 12.9 ± 1.9 µM
IC50 [2]: 12.9 µM
IC50 [4]: 0.25 µM
